{"source": "patent US20220213030A1", "about": "“AMINOGUANIDINE HYDRAZONES AS RETROMER STABILIZERS USEFUL FOR TREATING NEUROLOGICAL DISEASES” (OSPEDALE SAN RAFFAELE SRL, priority 2019, published 2022)", "key": {"[1]": {"system": "Neuro2a cells transfected with G93A plasmids", "test": "LDH-Glo cytotoxicity assay in G93A-transfected Neuro2a", "type": "cell-based, mouse", "details": "10 μM", "procedure": "We next assayed cytotoxicity by measuring lactate dehydrogenase (LDH) release with a LDH-Glo™ cytotoxicity assay. Cells were treated with plasmids encoding G93A and the Sh56-RNAi sequence with or without compound 2a, while supernatants were used to measure LDH contents. Overexpression of G93A increased the release of LDH by Neuro2a cells, when compared with cells transfected with LacZ-encoding plasmids or with LacZ+Sh56 plasmids (FIG. 3E). […] On the other hand, LDH release increased when cells received G93A plasmids along with Sh56 plasmids.\nLDH cytotoxicity was run on 96 well plates using LDH-Glo™ Cytotoxicity Assay (Promega). Briefly, Neuro2a cells were transfected with plasmids encoding pCMV-LacZ; pcDNA3.1(+)SOD1G93A with or without VPS35 short interfering plasmids (Sh56) or compound 2a (10 μM). After 48 hours, 5 μl of supernatants were 100 fold diluted in LDH storage buffer (Tris-HCl 200 mM, 10% Glycerol, 1% BSA, Sigma-Aldrich) and used to determine LDH, according to manufacturer's recommendations. Maximum LDH Release Control was obtained lysing untreated Neuro2a cells with 2 μL of 10% Triton X-100 (Sigma-Aldrich). In each experiment we calculated % Cytotoxicity=(Exp.LDH Release-Medium Background)/(Max LDH Release Control-Medium Background), and we run parallel positive controls treating cells with 200 μM H2O2."}, "[2]": {"target": "T1, VPS35 (Mus musculus, UniProt Q9EQH3+Q9QZ88)", "test": "VPS35 levels in Neuro2a cells by Western blot (screening of amino guanidine hydrazones)", "type": "cell-based", "set-up": "endogenous in cells; host or cells: Neuro2a", "details": "48 hours", "procedure": "To functionally screen the majority of synthetized amino guanidine hydrazones of the invention and determine their effects on the retromer complex, we incubated Neuro2a cells with each synthetized molecule at the concentration of 10 μM.\nThe test was executed in triplicate for each tested compound of the invention, cells lysates were established after 48 hours' incubation, and levels of VPS35 were normalized on the housekeeping gene β-Actin by Western blot. We observed a preliminary SAR among the compounds.\nFold changes are calculated over normalized VPS35 levels measured in vehicle-treated cells.\nNeuro2a cells were seeded on 12 wells multiwell at the concentration of 100 000 cells/well. Cells were incubated with each compound, including the standard R55, at 10 μM for 48 hours. Cells were then washed in PBS 1× and lysed in a buffer containing Tris-HCl 10 mM pH8, EDTA 1 mM pH8, NaCl 100 mM, NP40 1%, with protease inhibitor cocktail (Sigma) 1×. Using a cell scraper total lysates were collected from each well, quantified with BCA (BCA protein assay, Thermofisher). Five μg were resolved on precast 10% acrylamide gel (Biorad). Proteins were transferred to a PVDF membrane (Millipore) and western blot were performed using the following antibodies: goat αVPS35 (1:1000), mouse α-βActin (1:10000). Detection of proteins was obtained by a chemiluminescence detection kit (PerkinElmer)."}, "[3]": {"system": "G93A aggregates (SOD1)", "test": "Blue-native gel electrophoresis of SOD1 aggregates in G93A mice", "type": "in vivo, mouse", "details": "10 mg/kg daily, day 83 to day 103", "procedure": "SOD1 mutations increase the propensity of this protein to aggregate in cells (Johnston 2000). We checked whether compound 2a could reduce the accumulation of G93A aggregates in vivo. Starting at post-natal day 83, we injected G93A mice and WT littermates daily with compound 2a (10 mg/kg). We scored motor performances in both vehicle- and compound 2a-treated G93A mice until day 103. […] At day 103, we resolved SC protein extracts by blue-native polyacrylamide gel electrophoresis, and probing these gels with anti-SOD1 antibodies we observed high molecular weight smears in G93A mice that were completely absent in WT litters. The intensity of these high molecular weight entities was lowered in mice treated with lead 2a (FIG. 14B, C). Altogether, retromer stabilization by compound 2a increases lysosomal homeostasis in vitro and in vivo, decreases poly ubiquitination of proteins, and therefore diminishes levels of G93A aggregation.\nG93A mice and their WT litters were injected daily with vehicle or compound 2a (10 mg/kg, from day 83 to day 103). Lumbar spinal cords dissected from saline perfused mice were lysed in Tris-HCl 10 mM pH 8, EDTA 1 mM pH 8, NaCl 100 mM, NP40 1% and protease inhibitor cocktail (Sigma). Extracts were obtained using a tight-fitting glass Potter tissue grinder (1 ml; Wheaton). We incubated 250 μl of each extract with 100 mM Iodoacetamide (Sigma). […]"}, "[4]": {"target": "T1, VPS35", "test": "Cycloheximide (CHX) chase assay of VPS35 degradation in Neuro2a", "type": "cell-based", "set-up": "endogenous in cells; host or cells: Neuro2a", "details": "10 μM for 24 hours, then CHX 10 μg/mL up to 8 h", "procedure": "Compound 2a increases the stability of the retromer complex in vitro. We further validated this concept by measuring VPS35 degradation rates by a cycloheximide (CHX) chase assay. Neuro2a cells received vehicle or lead 2a (10 μM) for 24 hours, then CHX was added to the medium, and VPS35 levels were measured by western blot. […] As is the case with R55 (Mecozzi, Berman et al. 2014), compound 2a should not influence the transcription levels of CRC genes in Neuro2a cells.\nCycloheximide (CHX) assay was done on Neuro2a cells seeded in 6-well plates and incubated with compound 2a (10 μM) or vehicle for 24 hours. We next added CHX (Sigma) at 10 μg/mL and cells were collected at 0, 2, 4 and 8 hours for the time-course assay of VPS35 levels."}}, "note": "“Also recorded” adds a separate entry of the source.", "data": [{"smiles": "N=C(N)NN=Cc1cccc(C=NNC(=N)N)c1", "note": "[Compound 2a, 1,3-Bis-amino guanidine phenyl hydrazone]", "values": [{"measurement": "LDH release", "setting": "[1]; cells transfected with G93A plasmids and Sh56 plasmids", "value": "high release of LDH was observed"}, {"measurement": "LDH release", "setting": "[1]; cells transfected with G93A plasmids, 48 hours", "value": "significantly reduced LDH release"}, {"measurement": "Mean fold changes (VPS35 levels normalized on β-Actin, over vehicle-treated cells)", "setting": "[2]; 10 μM, independent cultures n=3", "value": 1.951}, {"measurement": "VPS35 levels (in words)", "setting": "[2]; compounds at 10 μM", "value": "able to consistently increase VPS35 levels with a limited variability among replicates; also recorded: increased"}, {"measurement": "intensity of high molecular weight SOD1 entities", "setting": "[3]", "value": "lowered"}, {"measurement": "VPS35 degradation after CHX", "setting": "[4]", "value": "protected VPS35 from degradation"}]}]}
